In patent US11254686B1 (Corvus Pharmaceuticals, Inc., priority 2017, dated 2022):

Key:
Format in all cases: biochemical
adenosine A3 receptor = adenosine A3 receptor (Homo sapiens (Human), UniProt P0DMS8); experiment: Adenosine receptor activity assay (Table 1), A3 cAMP
Procedure: (§1) Table 1. Compounds (e.g., Adenosine Receptor modulators) and activity assay results. The legend is as follows: A=<10 nM; B=10-50 nM; C=50-100 nM; D=100-500; and E=>500 nM. The ratio corresponds to the A2A activity to the A2B activity; or A2A/A2B.

adenosine A2B receptor = adenosine A2B receptor (Homo sapiens (Human), UniProt P29275); experiment: Adenosine receptor activity assay (Table 1), A2B activity; conditions: for Ratio: A2A activity to the A2B activity, A2A/A2B; for IC50: read-out: Ave A2B cAMP IC50
Chain of adenosine A2B receptor (P29275 whole entry): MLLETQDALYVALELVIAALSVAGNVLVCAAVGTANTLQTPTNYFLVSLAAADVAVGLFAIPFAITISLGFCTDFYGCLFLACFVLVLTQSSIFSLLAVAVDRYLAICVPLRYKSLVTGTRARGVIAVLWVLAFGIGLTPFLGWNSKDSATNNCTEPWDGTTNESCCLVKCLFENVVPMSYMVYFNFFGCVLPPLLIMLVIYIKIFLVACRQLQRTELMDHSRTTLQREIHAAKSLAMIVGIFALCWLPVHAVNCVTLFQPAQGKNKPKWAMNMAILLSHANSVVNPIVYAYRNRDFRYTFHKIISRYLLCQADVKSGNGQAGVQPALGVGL

adenosine A2A receptor = adenosine A2A receptor (Homo sapiens (Human), UniProt P29274); experiment: Adenosine receptor activity assay (Table 1), A2A activity; conditions: read-out: Ave A2A cAMP IC50
Chain of adenosine A2A receptor (P29274 whole entry): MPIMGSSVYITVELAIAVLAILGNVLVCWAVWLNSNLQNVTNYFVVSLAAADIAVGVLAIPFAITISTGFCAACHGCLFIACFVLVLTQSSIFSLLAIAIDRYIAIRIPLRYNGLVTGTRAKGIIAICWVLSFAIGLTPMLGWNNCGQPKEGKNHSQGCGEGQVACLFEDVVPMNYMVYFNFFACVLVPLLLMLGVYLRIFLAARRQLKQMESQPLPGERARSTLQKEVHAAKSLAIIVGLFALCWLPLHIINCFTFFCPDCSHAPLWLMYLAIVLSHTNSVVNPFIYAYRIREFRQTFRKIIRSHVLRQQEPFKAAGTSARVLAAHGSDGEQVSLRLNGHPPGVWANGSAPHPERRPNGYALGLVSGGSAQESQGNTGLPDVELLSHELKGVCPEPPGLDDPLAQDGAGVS

adenosine A1 receptor = adenosine A1 receptor (Homo sapiens (Human), UniProt P30542); experiment: Adenosine receptor activity assay (Table 1), A1 cAMP
Chain of adenosine A1 receptor (P30542 whole entry): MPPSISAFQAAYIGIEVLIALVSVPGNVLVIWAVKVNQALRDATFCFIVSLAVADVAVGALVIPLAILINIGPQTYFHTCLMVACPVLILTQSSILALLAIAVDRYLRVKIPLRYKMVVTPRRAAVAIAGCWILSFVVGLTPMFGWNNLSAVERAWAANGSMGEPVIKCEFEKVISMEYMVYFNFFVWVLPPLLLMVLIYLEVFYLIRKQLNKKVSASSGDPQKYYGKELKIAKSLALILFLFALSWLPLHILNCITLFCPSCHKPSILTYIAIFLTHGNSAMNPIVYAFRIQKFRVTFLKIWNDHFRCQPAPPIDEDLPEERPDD
Procedure: as §1

Chain of adenosine A3 receptor (P0DMS8 whole entry): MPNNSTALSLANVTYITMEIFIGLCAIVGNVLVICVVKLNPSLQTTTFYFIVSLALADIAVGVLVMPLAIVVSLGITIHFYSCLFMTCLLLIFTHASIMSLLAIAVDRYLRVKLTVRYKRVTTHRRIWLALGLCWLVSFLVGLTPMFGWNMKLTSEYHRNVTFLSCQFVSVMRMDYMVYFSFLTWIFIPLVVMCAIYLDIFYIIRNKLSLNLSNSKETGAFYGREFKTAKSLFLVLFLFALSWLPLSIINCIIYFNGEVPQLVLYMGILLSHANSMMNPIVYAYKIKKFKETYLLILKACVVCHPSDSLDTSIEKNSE

IC50 (adenosine A3 receptor) [nM] | Ratio (adenosine A2B receptor) | IC50 (adenosine A2B receptor) [nM] | IC50 (adenosine A2A receptor) [nM] | IC50 (adenosine A1 receptor) [nM] | Compound
> 500 | 24.67 | 10 to 50 | > 500 | > 500 | COC[C@H]1CCN(C(=O)c2nc(N[C@@H](C)c3ccccn3)nc3cc(C)sc23)C1 [Example Z468, ((S)-3-(Methoxymethyl)pyrrolidin-1-yl)(6-methyl-2-(((S)-1-(pyridin-2-yl)ethyl)amino)thieno[3,2-d]pyrimidin-4-yl)methanone]
> 500 | 59.47 | 50 to 100 | > 500 | > 500 | CN[C@@H]1CCN(C(=O)c2nc(N[C@@H](C)c3cncc(F)c3)nc3cc(C)sc23)C1 [Example Z560, (2-(((S)-1-(5-Fluoropyridin-3-yl)ethyl)amino)-6-methylthieno[3,2-d]pyrimidin-4-yl)((R)-3-(methylamino)pyrrolidin-1-yl)methanone]
50 to 100 | 19.50 | < 10 | 100 to 500 | > 500 | (S)—N-((6-methoxypyridin-2-yl)methyl)-6-methyl-2-((1-(pyridin-2-yl)ethyl)amino)thieno[3,2-d]pyrimidine-4-carboxamide [Example Z464]
50 to 100 | 2.47 | < 10 | 10 to 50 | > 500 | Cc1csc2c(C(=O)NC3CCC3)nc(N[C@@H](C)c3ccccn3)nc12 [Example Z456, (S)—N-Cyclobutyl-7-methyl-2-((1-(pyridin-2-yl)ethyl)amino)thieno[3,2-d]pyrimidine-4-carboxamide]
100 to 500 | 2.32 | 10 to 50 | 10 to 50 | > 500 | Cc1cc2nc(N[C@@H](C)c3ccccn3)nc(C(=O)N3CC(C(=O)OC(C)(C)C)C3)c2s1 [Example Z552, tert-Butyl (S)-1-(6-methyl-2-((1-(pyridin-2-yl)ethyl)amino)thieno[3,2-d]pyrimidine-4-carbonyl)azetidine-3-carboxylate]
50 to 100 | 5.96 | < 10 | 10 to 50 | 50 to 100 | C[C@H](Nc1nc(C(=O)NCCc2cccc(O)c2)c2sccc2n1)c1cncc(F)c1 [Example Z409, (S)-2-((1-(5-Fluoropyridin-3-yl)ethyl)amino)-N-(3-hydroxyphenethyl)thieno[3,2-d]pyrimidine-4-carboxamide]
50 to 100 | 9.73 | 10 to 50 | 100 to 500 | 50 to 100 | COc1ccc(CNC(=O)c2nc(N[C@@H](C)c3ccccn3)nc3cc(C)sc23)cc1 [Example Z477, (S)—N-(4-Methoxybenzyl)-6-methyl-2-((1-(pyridin-2-yl)ethyl)amino)thieno[3,2-d]pyrimidine-4-carboxamide]
10 to 50 | 4.15 | < 10 | 10 to 50 | 50 to 100 | Cc1cc2nc(N[C@@H](C)c3cncc(F)c3)nc(C(=O)N3CC(NC(=O)OC(C)(C)C)C3)c2s1 [Example Z429, tert-Butyl (S)-(1-(2-((1-(5-Fluoropyridin-3-yl)ethyl)amino)-6-methylthieno[3,2-d]pyrimidine-4-carbonyl)azetidin-3-yl)carbamate]
> 500 | 0.37 | 10 to 50 | 10 to 50 | > 500 | C[C@H](Nc1nc(C(=O)N2CC(NC(=O)OC(C)(C)C)C2)c2sccc2n1)c1cncc(F)c1 [Example Z583, tert-Butyl (S)-(1-(2-((1-(5-fluoropyridin-3-yl)ethyl)amino)thieno[3,2-d]pyrimidine-4-carbonyl)azetidin-3-yl)carbamate]
50 to 100 | 0.04 | 100 to 500 | 10 to 50 | 100 to 500 | COc1ccc([C@H](C)Nc2nc(C(=O)NCc3cccnc3)c3sccc3n2)cc1 [Example Z435, (S)-2-((1-(4-Methoxyphenyl)ethyl)amino)-N-(pyridin-3-ylmethyl)thieno[3,2-d]pyrimidine-4-carboxamide]
> 500 | 47.68 | 10 to 50 | > 500 | > 500 | Cc1cc2nc(N[C@@H](C)c3ccccn3)nc(C(N)=O)c2s1 [Example Z480, (S)-6-Methyl-2-((1-(pyridin-2-yl)ethyl)amino)thieno[3,2-d]pyrimidine-4-carboxamide]
10 to 50 | 0.14 | 10 to 50 | < 10 | > 500 | Cc1cc2nc(N[C@@H](C)c3cncc(F)c3)nc(C(=O)N3CC(NC(=O)OCC(C)(C)C)C3)c2s1 [Example Z591, Neopentyl (S)-(1-(2-((1-(5-fluoropyridin-3-yl)ethyl)amino)-6-methylthieno[3,2-d]pyrimidine-4-carbonyl)azetidin-3-yl)carbamate]
> 500 | 19.23 | < 10 | 100 to 500 | > 500 | COc1cccc(CCNC(=O)c2nc(N[C@@H](C)c3cncc(F)c3)nc3ccsc23)n1 [Example Z411, (S)-2-((1-(5-Fluoropyridin-3-yl)ethyl)amino)-N-(2-(6-methoxypyridin-2-yl)ethyl)thieno[3,2-d]pyrimidine-4-carboxamide]
> 500 | 6.99 | 10 to 50 | 100 to 500 | > 500 | CC(=O)NC1CN(C(=O)c2nc(N[C@@H](C)c3cncc(F)c3)nc3ccsc23)C1 [Example Z530, (S)—N-(1-(2-((1-(5-Fluoropyridin-3-yl)ethyl)amino)thieno[3,2-d]pyrimidine-4-carbonyl)azetidin-3-yl)acetamide]
> 500 | 2.40 | 10 to 50 | 10 to 50 | > 500 | Cc1csc2c(C(=O)N3CCCC3)nc(N[C@@H](C)c3ccccn3)nc12 [Example Z459, (S)-(7-methyl-2-((1-(pyridin-2-yl)ethyl)amino)thieno[3,2-d]pyrimidin-4-yl)(pyrrolidin-1-yl)methanone]
> 500 | 33.02 | 10 to 50 | > 500 | > 500 | Cc1cc2nc(N[C@@H](C)c3cncc(F)c3)nc(C(=O)N3CC(NC(=O)CNC(=O)c4ccccc4)C3)c2s1 [Example Z512, (S)—N-(2-((1-(2-((1-(5-Fluoropyridin-3-yl)ethyl)amino)-6-methylthieno[3,2-d]pyrimidine-4-carbonyl)azetidin-3-yl)amino)-2-oxoethyl)benzamide]
> 500 | 4.95 | 10 to 50 | 50 to 100 | > 500 | CC(C)C(=O)NCC1CN(C(=O)c2nc(N[C@@H](C)c3cncc(F)c3)nc3ccsc23)C1 [Example Z578, (S)—N-((1-(2-((1-(5-Fluoropyridin-3-yl)ethyl)amino)thieno[3,2-d]pyrimidine-4-carbonyl)azetidin-3-yl)methyl)isobutyramide]
> 500 | 20.60 | 10 to 50 | > 500 | > 500 | Cc1cc2nc(N[C@@H](C)c3cncc(F)c3)nc(C(=O)N3CC[C@H](NC(=O)OCc4ccccc4)C3)c2s1 [Example Z473, Benzyl ((S)-1-(2-(((S)-1-(5-fluoropyridin-3-yl)ethyl)amino)-6-methylthieno[3,2-d]pyrimidine-4-carbonyl)pyrrolidin-3-yl)carbamate]
> 500 | 287.41 | < 10 | > 500 | > 500 | Cc1cc2nc(N[C@@H](C)c3cncc(F)c3)nc(C(=O)N3CC(C(N)=O)C3)c2s1 [Example Z504, (S)-1-(2-((1-(5-Fluoropyridin-3-yl)ethyl)amino)-6-methylthieno[3,2-d]pyrimidine-4-carbonyl)azetidine-3-carboxamide]
> 500 | 547.59 | < 10 | > 500 | > 500 | Cc1cc2nc(N[C@@H](C)c3cncc(F)c3)nc(C(=O)N3CC[C@H](CN)C3)c2s1 [Example Z554, ((R)-3-(Aminomethyl)pyrrolidin-1-yl)(2-(((S)-1-(5-fluoropyridin-3-yl)ethyl)amino)-6-methylthieno[3,2-d]pyrimidin-4-yl)methanone]
> 500 | 33.20 | 10 to 50 | 100 to 500 | > 500 | Cc1cc2nc(N[C@@H](C)c3cncc(F)c3)nc(C(=O)N3CC(N4CCCC4)C3)c2s1 [Example Z540, (S)-(2-((1-(5-Fluoropyridin-3-yl)ethyl)amino)-6-methylthieno[3,2-d]pyrimidin-4-yl)(3-(pyrrolidin-1-yl)azetidin-1-yl)methanone]
> 500 | 3.52 | < 10 | 10 to 50 | > 500 | Cc1cc2nc(N[C@@H](C)c3cncc(F)c3)nc(C(=O)N3CC(NC(=O)c4ccoc4)C3)c2s1 [Example Z546, (S)—N-(1-(2-((1-(5-Fluoropyridin-3-yl)ethyl)amino)-6-methylthieno[3,2-d]pyrimidine-4-carbonyl)azetidin-3-yl)furan-3-carboxamide]

Compound | IC50 (adenosine A3 receptor) [nM] | Ratio (adenosine A2B receptor) | IC50 (adenosine A2B receptor) [nM] | IC50 (adenosine A2A receptor) [nM] | IC50 (adenosine A1 receptor) [nM]
C[C@H](Nc1nc(C(=O)N2CC(C(=O)NOC(C)(C)C)C2)c2sccc2n1)c1cncc(F)c1 [Example Z579, (S)—N-(tert-Butoxy)-1-(2-((1-(5-fluoropyridin-3-yl)ethyl)amino)thieno[3,2-d]pyrimidine-4-carbonyl)azetidine-3-carboxamide] | > 500 | 1.29 | 50 to 100 | 50 to 100 | > 500
